# Experimental data reported in patent US20090018134A1, “Compounds - 945” (AstraZeneca AB, priority 2007, published 2009).
# Molecular target: T1, mTOR (Homo sapiens, UniProt P42345)
# T1 construct: FLAG; made in house
# Test: In Vitro mTOR Kinase Assay (Echo), Test (a)(ii)
# Format: biochemical
# Details: read-out: mTOR Kinase Assay (Echo)
# Summary of the method: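 FLAG-tagged human mTOR truncation (residues 1362-2549) expressed in HEK293 cells and FLAG-purified. Compounds dispensed acoustically, reaction 2 h at room temperature, stopped with EDTA. Phosphorylation of biotinylated peptide detected by AlphaScreen with anti-p70 S6K (T389) antibody overnight; IC50 reported.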
# T1 sequence (P42345 1362-2549): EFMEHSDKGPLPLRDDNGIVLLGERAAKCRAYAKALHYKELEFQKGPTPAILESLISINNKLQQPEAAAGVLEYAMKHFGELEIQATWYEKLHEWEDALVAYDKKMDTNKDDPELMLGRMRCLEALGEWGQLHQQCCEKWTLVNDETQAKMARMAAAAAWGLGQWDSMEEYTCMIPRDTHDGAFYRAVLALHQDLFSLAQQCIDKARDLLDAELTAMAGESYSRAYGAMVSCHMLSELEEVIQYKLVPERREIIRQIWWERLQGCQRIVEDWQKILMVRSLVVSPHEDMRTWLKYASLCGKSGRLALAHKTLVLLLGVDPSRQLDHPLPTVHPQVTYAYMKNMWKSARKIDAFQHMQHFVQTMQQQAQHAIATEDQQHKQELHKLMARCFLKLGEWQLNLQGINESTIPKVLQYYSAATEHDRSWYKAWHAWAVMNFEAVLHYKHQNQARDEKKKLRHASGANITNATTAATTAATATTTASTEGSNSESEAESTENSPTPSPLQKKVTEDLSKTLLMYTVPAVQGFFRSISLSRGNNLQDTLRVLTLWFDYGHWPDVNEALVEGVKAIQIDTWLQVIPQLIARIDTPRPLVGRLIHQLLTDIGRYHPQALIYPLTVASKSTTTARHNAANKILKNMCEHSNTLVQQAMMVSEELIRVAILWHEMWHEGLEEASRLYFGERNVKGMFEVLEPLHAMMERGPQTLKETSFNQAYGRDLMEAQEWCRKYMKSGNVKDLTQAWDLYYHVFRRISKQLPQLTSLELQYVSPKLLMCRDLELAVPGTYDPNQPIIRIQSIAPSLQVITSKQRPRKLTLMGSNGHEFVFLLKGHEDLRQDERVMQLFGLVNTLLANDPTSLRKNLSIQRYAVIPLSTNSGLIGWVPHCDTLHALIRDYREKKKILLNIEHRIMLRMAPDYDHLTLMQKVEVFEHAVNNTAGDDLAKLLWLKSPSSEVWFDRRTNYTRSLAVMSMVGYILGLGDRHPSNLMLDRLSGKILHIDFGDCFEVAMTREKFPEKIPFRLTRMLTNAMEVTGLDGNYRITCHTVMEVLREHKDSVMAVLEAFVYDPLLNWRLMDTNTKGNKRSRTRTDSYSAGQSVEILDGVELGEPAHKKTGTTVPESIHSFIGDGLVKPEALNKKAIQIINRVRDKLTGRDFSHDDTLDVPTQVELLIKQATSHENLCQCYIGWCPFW
row,IC50 [nM],Structure (SMILES)
1,3.85,"C[C@H]1COCCN1c1cc(C2(S(C)(=O)=O)CCC2)nc(-c2ccc(NC(=O)NC3CCC3)cc2)n1 [Example 5d, 3-cyclobutyl-1-[4-[4-[(3S)-3-methylmorpholin-4-yl]-6-(1-methylsulfonylcyclobutyl)pyrimidin-2-yl]phenyl]urea]"
2,0.289,"CCNC(=O)Nc1ccc(-c2nc(N3CCOC[C@@H]3C)cc(C3(S(C)(=O)=O)CCC3)n2)cc1 [Example 5a, 3-ethyl-1-[4-[4-[(3S)-3-methylmorpholin-4-yl]-6-(1-methylsulfonylcyclobutyl)pyrimidin-2-yl]phenyl]urea]"
3,16.9,"CC(C)NC(=O)Nc1ccc(-c2nc(N3CCOC[C@@H]3C)cc(C3(S(C)(=O)=O)CCCC3)n2)cc1 [Example 4c, 1-[4-[4-[(3S)-3-methylmorpholin-4-yl]-6-(1-methylsulfonylcyclopentyl)pyrimidin-2-yl]phenyl]-3-propan-2-yl-urea]"

# Same assay, conditions: table of enzyme assay Test (a)(ii); read-out: Test (a)(ii) IC50
row,IC50 [nM],Structure (SMILES)
1,9.19,"C[C@H]1COCCN1c1cc(C2(S(=O)(=O)c3ccc(C#N)cc3)CC2)nc(-c2ccc(NC(=O)Nc3cnn(C)c3)cc2)n1 [Example 77f, 1-[4-[4-[1-(4-cyanophenyl)sulfonylcyclopropyl]-6-[(3S)-3-methylmorpholin-4-yl]pyrimidin-2-yl]phenyl]-3-(1-methylpyrazol-4-yl)urea]"
2,4.41,"Cc1csc(S(=O)(=O)C2(c3cc(N4CCOC[C@@H]4C)nc(-c4ccc(NC(=O)NCCCO)cc4)n3)CCC2)n1 [Example 98d, 3-(3-hydroxypropyl)-1-[4-[4-[(3S)-3-methylmorpholin-4-yl]-6-[1-[(4-methyl-1,3-thiazol-2-yl)sulfonyl]cyclobutyl]pyrimidin-2-yl]phenyl]urea]"
3,0.668,"Cc1ccc(S(=O)(=O)C2(c3cc(N4CCOC[C@@H]4C)nc(-c4ccc(NC(=O)NCCO)cc4)n3)CC2)cc1 [Example 95n, 3-(2-hydroxyethyl)-1-[4-[4-[(3S)-3-methylmorpholin-4-yl]-6-[1-(4-methylphenyl)sulfonylcyclopropyl]pyrimidin-2-yl]phenyl]urea]"
4,5.21,"C[C@H]1COCCN1c1cc(C2(S(=O)(=O)c3ccc(OC(F)F)cc3)CC2)nc(-c2ccc(NC(=O)NCC(F)F)cc2)n1 [Example 64f, 3-(2,2-difluoroethyl)-1-[4-[4-[1-[4-(difluoromethoxy)phenyl]sulfonyl-cyclopropyl]-6-[(3S)-3-methylmorpholin-4-yl]pyrimidin-2-yl]phenyl]urea]"
5,49.1,"CCNC(=O)Nc1ccc(-c2nc(N3CCOC[C@@H]3C)cc(C3(S(=O)(=O)c4c(C)noc4C)CC3)n2)cc1 [Example 59f, 3-[4-[4-[1-[(3,5-dimethyl-1,2-oxazol-4-yl)sulfonyl]cyclopropyl]-6-[(3S)-3-methylmorpholin-4-yl]pyrimidin-2-yl]phenyl]-1-ethylurea]"
6,0.502,CNC(=O)Nc1ccc(-c2nc(N3CCOC[C@@H]3C)cc(C3(S(=O)(=O)c4nccs4)CC3)n2)cc1 [Example 39a]
7,17.7,"CCS(=O)(=O)C1(c2cc(N3CCOC[C@@H]3C)nc(-c3ccc(NC(=O)NC(C)(C)CO)cc3)n2)CCC1 [Example 87d, 1-[4-[4-(1-ethylsulfonylcyclobutyl)-6-[(3S)-3-methylmorpholin-4-yl]pyrimidin-2-yl]phenyl]-3-(1-hydroxy-2-methylpropan-2-yl)urea]"
8,5.61,"C[C@H]1COCCN1c1cc(C2(S(=O)(=O)c3ccccn3)CCC2)nc(-c2ccc(NC(=O)NCCC#N)cc2)n1 [Example 36ai, 3-(2-cyanoethyl)-1-[4-[4-[(3S)-3-methylmorpholin-4-yl]-6-(1-pyridin-2-ylsulfonylcyclobutyl)pyrimidin-2-yl)phenyl]urea]"
9,11.6,"CCNC(=O)Nc1ccc(-c2nc(N3CCOC[C@@H]3C)cc(C3(S(=O)(=O)c4cc(F)ccc4F)CC3)n2)cc1 [Example 60e, 3-[4-[4-[1-(2,5-difluorophenyl)sulfonylcyclopropyl]-6-[(3S)-3-methylmorpholin-4-yl]pyrimidin-2-yl]phenyl]-1-ethylurea]"
10,2.74,"C[C@H]1COCCN1c1cc(C2(S(C)(=O)=O)CCC2)nc(-c2ccc(NC(=O)NC3CCC3)cc2)n1 [Example 5d, 3-cyclobutyl-1-[4-[4-[(3S)-3-methylmorpholin-4-yl]-6-(1-methylsulfonylcyclobutyl)pyrimidin-2-yl]phenyl]urea]"
11,7.28,"CCNC(=O)Nc1ccc(-c2nc(N3CCOC[C@@H]3C)cc(C3(S(=O)(=O)c4ccc(F)cc4F)CC3)n2)cc1 [Example 57e, 3-[4-[4-[1-(2,4-difluorophenyl)sulfonylcyclopro-pyl]-6-[(3S)-3-methylmorpholin-4-yl]pyrimidin-2-yl]phenyl]-1-ethylurea]"
12,30.8,"C[C@H]1COCCN1c1cc(C2(S(C)(=O)=O)CC2)nc(-c2ccc(NC(=S)NCCC#N)cc2)n1 [Example 41, 3-(2-Cyanoethyl)-1-[4-[4-[(3S)-3-methylmorpholin-4-yl]-6-(1-methylsulfonylcyclopropyl)pyrimidin-2-yl]phenyl]thiourea]"
13,4,"C[C@H]1COCCN1c1cc(C2(S(=O)(=O)C3CCCCC3)CC2)nc(-c2ccc(NC(=O)Nc3cnn(C)c3)cc2)n1 [Example 26h, 1-[4-[4-(1-cyclohexylsulfonylcyclopropyl)-6-[(3S)-3-methylmorpholin-4-yl]pyrimidin-2-yl]phenyl]-3-(1-methylpyrazol-4-yl)urea]"
14,12.1,"CCNC(=O)Nc1ccc(-c2nc(N3CCOCC3)cc(C3(S(=O)(=O)c4ccncc4)CC3)n2)cc1 [Example 36au, 1-ethyl-3-[4-[4-morpholin-4-yl-6-(1-pyridin-4-ylsulfonylcyclopropyl)pyrimidin-2-yl]phenyl]urea]"
15,21.4,"CCCNC(=O)Nc1ccc(-c2nc(N3CCOC[C@@H]3C)cc(C3(S(=O)(=O)CCO)CC3)n2)cc1 [Example 16e, 3-[4-[4-[1-(2-hydroxyethylsulfonyl)cyclopropyl]-6-[(3S)-3-methylmorpholin-4-yl]pyrimidin-2-yl]phenyl]-1-propylurea]"
16,3.23,"CNC(=O)Nc1ccc(-c2nc(N3CCOC[C@@H]3C)cc(C3(S(=O)(=O)CCCO)CC3)n2)cc1 [Example 31g, 1-[4-[4-[1-(3-hydroxypropylsulfonyl)cyclopropyl]-6-[(3S)-3-methylmorpholin-4-yl]pyrimidin-2-yl]phenyl]-3-methylurea]"
17,16,"C[C@H]1COCCN1c1cc(C2(S(=O)(=O)c3ccc(F)c(Cl)c3)CC2)nc(-c2ccc(NC(=O)NCC(F)F)cc2)n1 [Example 95e, 1-[4-[4-[1-(3-chloro-4-fluorophenyl)sulfonyl-cyclopropyl]-6-[(3S)-3-methylmorpholin-4-yl]pyrimi-din-2-yl]phenyl]-3-(2,2-difluoroethyl)urea]"
18,2.58,"CN(C(=O)C1(c2cc(N3CCOCC3)nc(-c3ccc(NC(=O)NC4CC4)cc3)n2)CC1)C1CC1 [Example 33c, N-cyclopropyl-1-[2-[4-(cyclopropylcarbamoylamino)phe-nyl]-6-morpholin-4-ylpyrimidin-4-yl]-N-methylcyclopropane-1-carboxamide]"
19,122,"C[C@H]1COCCN1c1cc(C2(S(C)(=O)=O)CCCC2)nc(-c2cnc(NC(=O)NC3CC3)nc2)n1 [Example 14s, 3-cyclopropyl-1-[5-[4-[(3S)-3-methylmorpholin-4-yl]-6-(1-methylsulfonylcyclopentyl)pyri-midin-2-yl]pyrimidin-2-yl]urea]"
20,12.7,"C[C@H]1COCCN1c1cc(C2(S(=O)(=O)c3nccs3)CCC2)nc(-c2ccc(NC(=O)NC(C)(C)CO)cc2)n1 [Example 98g, 3-(1-hydroxy-2-methylpropan-2-yl)-1-[4-[4-[(3S)-3-methylmorpholin-4-yl]-6-[1-(1,3-thiazol-2-ylsulfonyl)cyclobutyl]pyrimidin-2-yl]phenyl]urea]"
21,14,"CCNC(=O)Nc1ccc(-c2nc(N3CCOCC3)cc(C3(S(=O)(=O)c4ccc(F)cc4)CC3)n2)cc1 [Example 36ao, 1-ethyl-3-[4-[4-[1-(4-fluorophenyl)sulfonylcyclopropyl]-6-morpholin-4-ylpyrimidin-2-yl]phenyl]urea]"
22,18.3,"CNC(=O)Nc1ccc(-c2nc(N3CCOC[C@@H]3C)cc(C3(S(=O)(=O)c4ccc(C#N)cc4Cl)CC3)n2)cc1 [Example 85e, 1-[4-[4-[1-(2-chloro-4-cyanophenyl)sulfonylcyclopropyl]-6-[(3S)-3-methylmorpholin-4-yl]pyrimidin-2-yl]phenyl]-3-methylurea]"
23,2.31,"O=C(Nc1ccc(-c2nc(N3CCOCC3)cc(C3(S(=O)(=O)c4ccccn4)CC3)n2)cc1)NC1CC1 [Example 56, 3-Cyclopropyl-1-[4-[4-morpholin-4-yl-6-(1-Pyridin-2-ylsulfonylcyclopropyl)pyrimidin-2-yl]phenyl]urea]"
24,19.9,"CNC(=O)Nc1ccc(-c2nc(N3CCOC[C@@H]3C)cc(C3(S(=O)(=O)C4CC4)CCOCC3)n2)cc1 [Example 23f, 1-[4-[4-(4-cyclopropylsulfonyloxan-4-yl)-6-[(3S)-3-methylmorpholin-4-yl]pyrimidin-2-yl]phenyl]-3-methylurea]"
25,9.95,"O=C(Nc1ccc(-c2nc(N3CCOCC3)cc(C3(S(=O)(=O)c4ccncc4)CC3)n2)cc1)NC1CC1 [Example 36av, 3-cyclopropyl-1-[4-[4-morpholin-4-yl-6-(1-pyridin-4-ylsulfonylcyclopropyl)pyrimidin-2-yl]phenyl]urea]"
26,27.7,"C[C@H]1COCCN1c1cc(C2(S(=O)(=O)c3ccccc3)CC2)nc(-c2ccc(NC(=O)N3CCC(O)C3)cc2)n1 (stereo partly drawn) [Example 36do, N-[4-[4-[1-(benzenesulfonyl)cyclopropyl]-6-[(3S)-3-methylmorpholin-4-yl]pyrimidin-2-yl]phenyl]-3-hydroxypyrrolidine-1-carboxamide]"
27,2.53,"C[C@H]1COCCN1c1cc(C2(S(=O)(=O)c3ccccn3)CC2)nc(-c2ccc(NC(=O)NC3CCC3)cc2)n1 [Example 28a, 3-cyclobutyl-1-[4-[4-[(3S)-3-methylmorpholin-4-yl]-6-(1-pyridin-2-ylsulfonylcyclopropyl)pyrimidin-2-yl]phenyl]urea]"
28,13.6,"CNC(=O)Nc1ccc(-c2nc(N3CCOC[C@@H]3C)cc(C3(S(=O)(=O)C4CCOCC4)CC3)n2)cc1 [Example 94a, 3-methyl-1-[4-[4-[(3S)-3-methylmorpholin-4-yl]-6-[1-(oxan-4-ylsulfonyl)cyclopropyl]pyrimidin-2-yl]phenyl]urea]"
